Laboratory results: patent publication US11173140B2, “Dosing regimens of PKC activators” (COGNITIVE RESEARCH ENTERPRISES, INC., priority 2015, dated 2021)

What was measured:
PSD-95 = assay: Brain PSD-95 by Western Blot after i.v. bryostatin dosing regimens; type: in vivo, mice; settings: for PSD-95 (% of Control): mouse brain, 1 h after last dose
Description: The dose of bryostatin administered is reflected by the number above each bar, while the number within each bar indicates the number of consecutive weeks mice receive a single weekly dose of bryostatin. Control mice were injected with vehicle. PSD-95 was measured in mouse brain by Western Blot 1 h after the last dose. (Mean±SEM, n=3 except Cage 23 n=2, 2-tailed t-test).
Mouse studies were performed using bryostatin-i in accordance with the protocol described below. The following metrics were used to evaluate dosing regimens: induction of brain postsynaptic anchoring protein PSD-95, upregulation of BDNF levels in brain, minimal downregulation of PKC-ε levels, and elevation of brain and plasma concentrations of bryostatin. Groups of 2-3 mice were formed and housed in an approved research animal facility. Water was give ad libitum. A first study involved three groups of mice with animals in each group dosed weekly for 1, 2, 3, or 6 consecutive weeks. Each group had its own control group containing the same number of mice. In this study, mice in the first, second and third groups received an intravenous (i.v.) injection of 10 μg/m^2, 15 μg/m^2, and 25 μg/m^2 dose of bryostatin respectively. For each dose, mice in that group received a single injection of bryostatin weekly for predetermined number of consecutive weeks. Following dosing, mice were sacrificed and the blood and brain of each animal was collected for further analysis.
Cells were harvested in homogenizing buffer containing 10 mM Tris-Cl (pH 7.4), 1 mM PMSF (phenylmethylsulfonyl fluoride), 1 mM EGTA, 1 mM EDTA. 50 mM NaF, and 20 μM leupeptin and were lysed by sonication. The homogenate was centrifuged at 100,000×g for 15 min at 4° C. to obtain the cytosolic fraction (supernatant) and membrane (pellet). The pellet was resuspended in the homogenizing buffer by sonication. Protein concentration was measured using the Coomassie Plus (Bradford) Protein Assay kit (Pierce, USA). Following quantification, 20 μg of protein from each sample was subjected to SDS-PAGE analysis in 4-20% gradient Tris-Glycine gel (Invitrogen, USA). The separated protein was then transferred to nitrocellulose membrane. The membrane was blocked with BSA at room temperature for 15 min and was incubated with primary antibody over night at 4° C. After the incubation, it was washed three times with TBS-T (Tris Buffered saline-Tween 20) and further incubated with alkaline phosphatase conjugated secondary antibody (Jackson Immunoresearch Laboratories. USA) at 1:10,000 dilution for 45 min. The membrane was finally washed three times with TBS-T and developed using the 1-step NBT-BCIP substrate (Pierce, USA). Western Blot was imaged in the Image Quant RT-ECL (GE Life Sciences, Piscataway, N.J.) and densitometric quantification was performed using the IMAL software (Blanchette Rockefeller Neurosciences institute, Morgantown, W. Va.). For translocation assays, PKC activation was represented as the percentage of total protein in the membrane (membrane/cytosol+membrane).
C57B/6 male mice weighing between 19-21 grams were obtained from Charles River and housed in cages, 1 mouse/cage in a vivarium at the Blanchette Rockefeller Neurosciences institute. Animals were allowed access to water ad libitum.
(§1) In these studies, bryostatin was administered intravenously (i.v.) by injection into the tail vein of a mouse. Stock solutions of bryostatin were prepared in dimethyl sulfoxide (DMSO). Prior to administration to a mouse, the stock DMSO solution of bryostatin was diluted to a predetermined concentration by dilution with phosphate buffered saline/saline (PBS/saline).
Three different dosing regimens (injection schedules) were compared. The dosing regimens tested were weekly dosing, dosing every other week (alternating weeks), and spaced or intermittent dosing. […]

[1] = Bryostatin levels in brain and plasma (HPLC-MS), crossing of blood-brain barrier; type: in vivo, mice; settings: for bryostatin (% of Control), BRAIN: mouse brain; for bryostatin (% of Control), PLASMA: mouse plasma
Description: FIG. 5 illustrates the steady state concentration of bryostatin in the brain and plasma of mice following intravenous administration at the indicated doses.
Further evaluation was performed on bryostatin crossing the blood-brain-barrier (BBB) and the steady state levels of bryostatin in the brain and plasma of mice. […] The concentration of bryostatin in mice brain was less than its concentration in plasma.
as §1
The brain, whole blood, and plasma of mice in each dosing group as well as control mice was collected at 1 hour, 24 hours and 7 days after the last injection of bryostatin. PBMC's were isolated from blood and the brain, blood, plasma and PBMC's were frozen immediately using dry ice. Prior to analysis PBMC's were counted by diluting the sample (10 μl aliquot), 10-fold and the PBMC's counted using a Millipore Scepter cell counter. Every group of test animals had its own control group (N=3). Mice in the control group were injected with vehicle at a frequency similar to the dosing regimen and these animals were sacrificed and tested in parallel with mice in the test group.
Each measurement was performed four times (X4). BDNF levels were measured using ELISA and the concentration of protein PSD-95 was measured by Western Blot. High performance liquid chromatography-mass spectral analysis was used to measure the concentration of bryostatin in blood and brain samples based on a standard curve. Total protein concentrations were measured Coomassie Plus (Bradford) Protein Assay kit.
The therapeutic efficacy of bryostatin depends at least in part on its ability to cross the blood-brain-barrier (BBB). To evaluate whether dosing regimen influences the bryostatin levels in brain, mice were administered the drug intravenously. Table 9 illustrates the effect of dose and dosing regimen on bryostatin levels in the brain and plasma of mice. Sporadic dosing increased the levels of bryostatin in brain compared to plasma. See data for mice in cages 9 and 11.

[2] = cage 4: 25 μg/m^2 i.v. once weekly, 3 weeks, 24 h
[3] = cage 6: 10 μg/m^2 i.v. once weekly, 3 weeks, 24 h
[4] = cage 9: 25 μg/m^2 i.v., weeks 1 and 3, 24 h
[5] = cage 11: 25 μg/m^2 i.v., weeks 1 and 2, 7 d delay

Q: With `CCC/C=C/C=C/C(=O)O[C@H]1/C(=C/C(=O)OC)C[C@H]2C[C@H]([C@@H](C)O)OC(=O)C[C@H](O)C[C@@H]3C[C@H](OC(C)=O)C(C)(C)[C@](O)(C[C@@H]4C/C(=C/C(=O)OC)C[C@H](/C=C/C(C)(C)[C@]1(O)O2)O4)O3` [Bryostatin-1] as the compound, how does the “amounts of PSD-95” value (PSD-95; mice, 25 μg/m^2 i.v. once per week, three weeks) read?
A: higher amounts

Q: What about the “PSD-95 (% of Control)” value (PSD-95; cage 7: 10 μg/m^2 i.v. once weekly, 6 weeks) of the same compound?
A: 108.176 % of Control

Q: What about the “PSD-95 (% of Control)” value (PSD-95; cage 17: 15 μg/m^2 i.v. once weekly, 3 weeks) of the same compound?
A: 126.969 % of Control

Q: What about the “PSD-95 (% of Control)” value (PSD-95; cage 21: 25 μg/m^2 i.v., 1 week) of the same compound?
A: 99.453 % of Control

Q: What about the “PSD-95 (% of Control)” value (PSD-95; cage 23: 25 μg/m^2 i.v. once weekly, 2 weeks) of the same compound?
A: 107.570 % of Control

Q: And the “PSD-95 (% of Control)” value (PSD-95; cage 25: 25 μg/m^2 i.v. once weekly, 3 weeks)?
A: 171.203 % of Control

Q: And the “increase of bryostatin concentration in brain” value ([1]; mice, 25 μg/m^2 weekly for three consecutive weeks versus 1 on/1 off or 2 on/1 off)?
A: less effective

Q: What about the “crossing of the blood-brain-barrier” value ([1]; mice, intravenous) of the same compound?
A: crossed the BBB

Q: What about the “plasma concentrations of bryostatin” value ([1]; mice, single weekly injection for three consecutive weeks versus 1 on/1 off or 2 on/1 off) of the same compound?
A: greater

Q: What about the “levels of bryostatin in brain compared to plasma” value ([1]; mice, sporadic dosing (cages 9 and 11)) of the same compound?
A: increased

Q: What about the “bryostatin (% of Control), BRAIN” value [1, 2] of the same compound?
A: 0.0140 % of Control

Q: And the “bryostatin (% of Control), BRAIN” value [1, 3]?
A: 0.0202 % of Control

Q: And the “bryostatin (% of Control), BRAIN” value [1, 4]?
A: 0.0197 % of Control

Q: What about the “bryostatin (% of Control), BRAIN” value [1, 5] of the same compound?
A: 0.0217 % of Control

Q: What about the “bryostatin (% of Control), PLASMA” value [1, 2] of the same compound?
A: 0.0306 % of Control

Q: What about the “bryostatin (% of Control), PLASMA” value [1, 3] of the same compound?
A: 0.0287 % of Control

Q: What about the “bryostatin (% of Control), PLASMA” value [1, 4] of the same compound?
A: 0.0148 % of Control

Q: What about the “bryostatin (% of Control), PLASMA” value [1, 5] of the same compound?
A: 0.0012 % of Control
